The values below come from patent publication US12679801B2, “Amino lipid and preparation method and application thereof” (Shenzhen MagicRNA Biotechnology Co., Ltd., priority 2022, dated 2026).

The test system of the test is BMDC primary cells. Briefly: Luc mRNA LNP transfection on BMDC primary cells (Embodiment 21, Table 9). The following applies: 16 h, ONE-Glo Luciferase. It counts as cell-based, C57BL/6 mice. As to the method:
Preparation method: the same as that in Embodiment 17.
Animal preparation: 6-week-old female C57BL/6 mice with the body weight about 20 g were selected. A feeding environment was an SPF stage feeding room. Animal tests were strictly performed according to the guide of the national health institute and the animal ethics requirements.
Cell acquisition: C57BL/6 mice were killed through cervical dislocation, and were soaked for 5 min in 75% ethyl alcohol. Dissection was performed to obtain thigh and calf tibiae of the mice. Attached muscles were removed to expose sclerotin. Then, bone marrow in tibiae was blown out by using a 1 mL injector sucked with PBS. After the bone marrow was blown away, impurities were filtered away by a 50 μm filter screen. A red blood cell lysis buffer (3-4 mL) was added into an obtained filtrate. Then, after placement for 5 min, 800 g centrifugation was performed for 5 min to remove a supernatant. The obtained cells were placed into a 1640 culture medium (containing 10% fetal calf serum, 20 ng/mL GMCSF and 10 ng/mL IL4) to be resuspended, and were inoculated into a 6-well plate at an inoculation density of 100000 cells/ml culture medium. The materials were placed into a 37° C. cell incubator containing 5% CO2. Half liquid change was performed once every 2 days. Suspended cells and loose wall attached cells were collected on the seventh day, and were inoculated to a 96-well all-white ELISA plate at the inoculation density of 20000 cells per well, and the volume of a culture medium was 100 μL.
Cell transfection: lipid nanoparticles coated with luciferase mRNA were added into a 96-well white ELISA plate laid with primary cells. The adding volume of the mRNA lipid nanoparticles in each well was controlled to be 10 μL. Then, the materials were put into a 37° C. incubator containing 5% CO2 for 16 h.
Transfection efficiency detection: 20 μL of a substrate ONE-Glo™ Luciferase was added into each well of a 96-well all-white ELISA plate, and after 1 min, detection was performed by a multifunctional or multimode microplate reader.

Molecules are shown by their SMILES.

`CCCCCCCCCCC(COC(=O)C(CCCC)CCCCCCCCCC)OC(=O)CCCN(C)C` (stereo not shown) [E7C104A9] yielded a Luciferase luminescence intensity of 3.9E+04.

The compound `CCCCCCCCCCCCC(CCCC)C(=O)OCC(CCCCCCCCCC)OC(=O)CCCN(C)C` (stereo not shown) [E7C106A9] yielded a Luciferase luminescence intensity of 3.9E+04.

On to `CCCCCCCCCCC(COC(=O)C(CCCCCCC)CCCCCCC)OC(=O)CCCN(C)C` (stereo not shown) [E7C114A9, 2-((4-(Dimethylamino)Butanoyl)Oxy) Dodecyl 2-Heptylnonanoate], for which the Luciferase luminescence intensity came to 6.6E+04.

`CCCCCCCCCCC(COC(=O)C(CCCCCCC)CCCCCCC)OC(=O)CCCCN(C)C` (stereo not shown) [E7C114A11] came in with a Luciferase luminescence intensity of 9.9E+04. For `CCCCCCCCCCC(COC(=O)C(CCCCCCCC)CCCCCCCC)OC(=O)CCCN(C)C` (stereo not shown) [E7C115A9] the value was 5.6E+04.

`CCCCCCCCCCC(COC(=O)C(CCCCCCCCC)CCCCCCCCC)OC(=O)CCCCN(C)C` (stereo not shown) [E7C116A11] gave a Luciferase luminescence intensity of 9.2E+04.

The compound `CCCCCCCCCCC(COC(=O)CC(CCCCC)CCCCCCCCC)OC(=O)CCCN(C)C` (stereo not shown) [E7C123A9] showed a Luciferase luminescence intensity of 4.3E+04. `CCCCCCCCCCC(COC(=O)CC(CCCCCC)CCCCCCCC)OC(=O)CCCCN(C)C` (stereo not shown) [E7C126A11] showed a Luciferase luminescence intensity of 3.9E+04. For `CCCCCCCCCCC(COC(=O)CC(CCCCCCC)CCCCCCC)OC(=O)CCCN(C)C` (stereo not shown) [E7C128A9] the value was 3.5E+04. For the compound `CCCCCCCCCCC(COC(=O)CC(CCCCCCC)CCCCCCC)OC(=O)CCCCN(C)C` (stereo not shown) [E7C128A11], the Luciferase luminescence intensity was 3.6E+04. For `CCCCCCCCCCCC(COC(=O)C(CCCC)CCCCCCCCCC)OC(=O)CCCN(C)C` (stereo not shown) [E8C104A9] the value was 3.7E+04.

`CCCCCCCCCCCC(COC(=O)C(CCCCC)CCCCCCCCC)OC(=O)CCCN(C)C` (stereo not shown) [E8C109A9]: the Luciferase luminescence intensity worked out at 4.8E+04. For `CCCCCCCCCCCC(COC(=O)C(CCCCC)CCCCCCCCCCC)OC(=O)CCCN(C)C` (stereo not shown) [E8C111A9] the value was 4.6E+04; for `CCCCCCCCCCCC(COC(=O)C(CCCCCCC)CCCCCCC)OC(=O)CCCN(C)C` (stereo not shown) [E8C114A9], 6.8E+04; for `CCCCCCCCCCCC(COC(=O)C(CCCCCCC)CCCCCCC)OC(=O)CCCCN(C)C` (stereo not shown) [E8C114A11], 1.3E+05.

The compound `CCCCCCCCCCCC(COC(=O)C(CCCCCCCC)CCCCCCCC)OC(=O)CCCN(C)C` (stereo not shown) [E8C115A9] yielded a Luciferase luminescence intensity of 6.0E+04. With `CCCCCCCCCCCC(COC(=O)C(CCCCCCCC)CCCCCCCC)OC(=O)CCCCN(C)C` (stereo not shown) [E8C115A11] the figure was 1.9E+05. With `CCCCCCCCCCCC(COC(=O)C(CCCCCCCCC)CCCCCCCCC)OC(=O)CCCCN(C)C` (stereo not shown) [E8C116A11] the figure was 5.0E+04; with `CCCCCCCCCCCC(COC(=O)CC(CCCCC)CCCCCCCCC)OC(=O)CCCCN(C)C` (stereo not shown) [E8C123A11], 7.1E+04; with `CCCCCCCCCCCC(COC(=O)CC(CCCCCCC)CCCCCCC)OC(=O)CCCN(C)C` (stereo not shown) [E8C128A9], 3.9E+04. Compound `CCCCCCCCCCCC(COC(=O)CC(CCCCCCC)CCCCCCC)OC(=O)CCCCN(C)C` (stereo not shown) [E8C128A11] yielded a Luciferase luminescence intensity of 3.5E+04. With `CCCCCCCCCCCCC(COC(=O)C(CCCC)CCCCCCCCCC)OC(=O)CCCN(C)C` (stereo not shown) [E9C104A9] the figure was 3.6E+04. With `CCCCCCCCCCCCC(COC(=O)C(CCCC)CCCCCCCCCC)OC(=O)CCCCN(C)C` (stereo not shown) [E9C104A11] the figure was 4.4E+04; with `CCCCCCCCCCCCC(COC(=O)C(CCCCC)CCCCCCCCC)OC(=O)CCCN(C)C` (stereo not shown) [E9C109A9], 3.6E+04. With `CCCCCCCCCCCCC(COC(=O)C(CCCCC)CCCCCCCCC)OC(=O)CCCCN(C)C` (stereo not shown) [E9C109A11] the figure was 3.6E+04; with `CCCCCCCCCCCCC(COC(=O)C(CCCCC)CCCCCCCCCCC)OC(=O)CCCCN(C)C` (stereo not shown) [E9C111A11], 3.9E+04; with `CCCCCCCCCCCCC(COC(=O)C(CCCCCCC)CCCCCCC)OC(=O)CCCN(C)C` (stereo not shown) [E9C114A9], 9.1E+04. `CCCCCCCCCCCCC(COC(=O)C(CCCCCCC)CCCCCCC)OC(=O)CCCCN(C)C` (stereo not shown) [E9C114A11] had a Luciferase luminescence intensity of 8.5E+04.

The compound `CCCCCCCCCCCCC(COC(=O)C(CCCCCCCC)CCCCCCCC)OC(=O)CCCN(C)C` (stereo not shown) [E9C115A9] returned a Luciferase luminescence intensity of 1.4E+05.

`CCCCCCCCCCCCC(COC(=O)C(CCCCCCCC)CCCCCCCC)OC(=O)CCCCN(C)C` (stereo not shown) [E9C115A11]: the Luciferase luminescence intensity was 1.9E+05. With `CCCCCCCCCCCCC(COC(=O)C(CCCCCCCCC)CCCCCCCCC)OC(=O)CCCCN(C)C` (stereo not shown) [E9C116A11] the figure was 7.6E+04; with `CCCCCCCCCCCCC(COC(=O)CC(CCCCC)CCCCCCCCC)OC(=O)CCCCN(C)C` (stereo not shown) [E9C123A11], 5.1E+04. In turn, `CCCCCCCCCCCCC(COC(=O)CC(CCCCCCC)CCCCCCC)OC(=O)CCCN(C)C` (stereo not shown) [E9C128A9] came in with a Luciferase luminescence intensity of 3.7E+04. With `CCCCCCCCCCCCC(COC(=O)CC(CCCCCCC)CCCCCCC)OC(=O)CCCCN(C)C` (stereo not shown) [E9C128A11] the figure was 3.5E+04; with `CCCCCCCCCCCCCC(COC(=O)C(CCCC)CCCCCCCCCCCC)OC(=O)CCCN(C)C` (stereo not shown) [E10C106A9], 4.2E+04; with `CCCCCCCCCCCCCC(COC(=O)C(CCCCC)CCCCCCCCC)OC(=O)CCCCN(C)C` (stereo not shown) [E10C109A11], 3.5E+04. For `CCCCCCCCCCCCCC(COC(=O)C(CCCCC)CCCCCCCCCCC)OC(=O)CCCN(C)C` (stereo not shown) [E10C111A9] the value was 3.7E+04; for `CCCCCCCCCCCCCC(COC(=O)C(CCCCCCC)CCCCCCC)OC(=O)CCCN(C)C` (stereo not shown) [E10C114A9], 4.3E+04; for `CCCCCCCCCCCCCC(COC(=O)C(CCCCCCC)CCCCCCC)OC(=O)CCCCN(C)C` (stereo not shown) [E10C114A11], 7.6E+04. `CCCCCCCCCCCCCC(COC(=O)C(CCCCCCCC)CCCCCCCC)OC(=O)CCCN(C)C` (stereo not shown) [E10C115A9] gave a Luciferase luminescence intensity of 4.4E+04. For `CCCCCCCCCCCCCC(COC(=O)C(CCCCCCCC)CCCCCCCC)OC(=O)CCCCN(C)C` (stereo not shown) [E10C115A11] the value was 8.2E+04. For `CCCCCCCCCCCCCC(COC(=O)CC(CCCCCCC)CCCCCCC)OC(=O)CCCN(C)C` (stereo not shown) [E10C128A9] the value was 3.8E+04; for `CCCCCCCCCCCCCC(COC(=O)CC(CCCCCCC)CCCCCCC)OC(=O)CCCCN(C)C` (stereo not shown) [E10C128A11], 4.7E+04. With `CCCCCCCCCCCCCCC(COC(=O)C(CCCCC)CCCCCCCCC)OC(=O)CCCN(C)C` (stereo not shown) [E11C109A9] the figure was 4.3E+04; with `CCCCCCCCCCCCCCC(COC(=O)C(CCCCC)CCCCCCCCC)OC(=O)CCCCN(C)C` (stereo not shown) [E11C109A11], 4.8E+04. `CCCCCCCCCCCCCCC(COC(=O)C(CCCCCCC)CCCCCCC)OC(=O)CCCN(C)C` (stereo not shown) [E11C114A9] came in with a Luciferase luminescence intensity of 4.5E+04. For `CCCCCCCCCCCCCCC(COC(=O)C(CCCCCCC)CCCCCCC)OC(=O)CCCCN(C)C` (stereo not shown) [E11C114A11] the value was 6.5E+04; for `CCCCCCCCCCCCCCC(COC(=O)C(CCCCCCCC)CCCCCCCC)OC(=O)CCCN(C)C` (stereo not shown) [E11C115A9], 4.9E+04. For `CCCCCCCCCCCCCCC(COC(=O)C(CCCCCCCC)CCCCCCCC)OC(=O)CCCCN(C)C` (stereo not shown) [E11C115A11] the value was 6.3E+04.

Take `CCCCCCCCCCCCCCC(COC(=O)CC(CCCCCC)CCCCCCCC)OC(=O)CCCN(C)C` (stereo not shown) [E11C126A9]: the Luciferase luminescence intensity was found to be 3.6E+04. With `CCCCCCCCCCCCCCC(COC(=O)CC(CCCCCCC)CCCCCCC)OC(=O)CCCN(C)C` (stereo not shown) [E11C128A9] the figure was 3.9E+04. For `CCCCCCCCCCCCCCC(COC(=O)CC(CCCCCCC)CCCCCCC)OC(=O)CCCCN(C)C` (stereo not shown) [E11C128A11] the value was 4.2E+04.
